# Reference: patent publication US6642216B2, “Isoprenoid pathway inhibitors for stimulating bone growth” (ZymoGenetics Corporation, priority 1996, dated 2003)
# Experiments:
# [1] = tested on: BMP-2 promoter; assay: ABA assay: BMP-2 promoter-luciferase reporter in 2T3-BMP-2-LUC osteoblast cells; type: cell-based, mouse
# Procedure: These transformed cells are then evaluated for the production of the reporter gene product; compounds that activate the BMP promoter will drive production of the reporter protein, which can be readily assayed.
# The cells were cultured using α-MEM, 10% FCS with 1% penicillin/streptomycin and 1% glutamine (“plating medium”), and were split 1:5 once per week. For the assay, the cells were resuspended in a plating medium containing 4% FCS, plated in microtiter plates at a concentration of 5×10^3 cells (in 50 μl)/well, and incubated for 24 hours at 37° C. in 5% CO2. To initiate the assay, 50 μl of the test compound or the control in DMSO was added at 2× concentration to each well, so that the final volume was 100 μl. The final serum concentration was 2% FCS, and the final DMSO concentration was 1%.
# The treated cells were incubated for 24 hours at 37° C. and 5% CO2. The medium was then removed, and the cells were rinsed three times with PBS. After removal of excess PBS, 25 μl of 1× cell culture lysing reagent (Promega #E153A) was added to each well and incubated for at least ten minutes. Optionally, the plates/samples could be frozen at this point. To each well was added 50 μl of luciferase substrate (Promega #E152A; 10 ml Promega luciferase assay buffer per 7 mg Promega luciferase assay substrate). Luminescence was measured on an automated 96-well luminometer, and was expressed as either picograms of luciferase activity per well or as picograms of luciferase activity per microgram of protein.
# Alternatively, the reactivity of a compound to be tested can be compared directly to a negative control containing no compound.
# [2] = tested on: serum response element (SRE)-luciferase reporter gene / CRE-luciferase reporter gene; assay: negative control OBSRE (SRE-luciferase) and/or glucagon (CRE-luciferase) assays; type: cell-based, murine
# Description: In the negative control OBSRE assay, a murine osteoblast cell line, such as CCC-4 expressing a serum response element (SRE)-luciferase reporter gene is used (see WO96/07733). In the negative control glucagon assay, a glucagon receptor-positive BHK cell expressing a CRE-luciferase reporter gene is used (see U.S. Pat. No. 5,698,672).
# [3] = tested on: murine calvariae; settings: reports by R. G. G. Russell and colleagues; cited from earlier work
# [4] = tested on: ICR Swiss white mice calvaria; assay: In vivo murine calvarial bone growth assay; parameters: species or system mouse; settings: 12.5 μg/kg/day
# Procedure: Male ICR Swiss white mice, aged 4-6 weeks and weighing 13-26 gm, are employed, using 4-5 mice per group. The calvarial bone growth assay is performed as described in PCT application WO 95/24211, incorporated by reference. Briefly, the test compound or appropriate control vehicle is injected into the subcutaneous tissue over the right calvaria of normal mice. Typically, the control vehicle is the vehicle in which the compound was solubilized, and is PBS containing 5% DMSO or is PBS containing Tween (2 μl/10 ml). The animals are sacrificed on day 14 and bone growth measured by histomorphometry. Bone samples for quantitation are cleaned from adjacent tissues and fixed in 10% buffered formalin for 24-48 hours, decalcified in 14% EDTA for 1-3 weeks, processed through graded alcohols; and embedded in paraffin wax. Three to five μm sections of the calvaria are prepared, and representative sections are selected for histomorphometric assessment of the effects on bone formation and bone resorption. Sections are measured by using a camera lucida attachment to trace directly the microscopic image onto a digitizing plate. Bone changes are measured on sections cut 200 μm apart, over 4 adjacent 1×1 mm fields on both the injected and noninjected sides of the calvaria. New bone is identified by its characteristic woven structure, and osteoclasts and osteoblasts are identified by their distinctive morphology. Histomorphometry software (OsteoMeasure, Osteometrix, Inc., Atlanta) is used to process digitizer input to determine cell counts and measure areas or perimeters.
# The results are reported as a measurement of total bone area (and % increase in area over vehicle control), as shown below.
# [5] = tested on: neonatal mouse calvaria; assay: Neonatal mouse calvaria assay (in vitro bone formation); type: cell-based; parameters: Osteoblast Number, % increase over vehicle control / New Bone Area, % increase over vehicle control: concentration or dose not given beside the values; settings: Experiment 1
# Procedure: Briefly, four days after birth, the front and parietal bones of ICR Swiss white mouse pups are removed by microdissection and split along the sagittal suture.
# Three μm sections of the calvaria are prepared. Representative sections are selected for histomorphometric assessment of bone formation or bone resorption. Bone changes are measured on sections cut 200 μm apart. Osteoblasts and osteoclasts are identified by their distinctive morphology.
# Selected compounds and appropriate controls were assayed in vitro (ex vivo) for bone formation activity (described above in “Neonatal Mouse Calvaria Assay (in vitro)”). Histomorphometrical assessments of ex vivo calvaria were carried out using an OsteoMetrics bone morphometry measurement program, according to the manufacturer's instructions. Measurements were determined using either a 10- or 20-fold objective with a standard point counting eyepiece graticule.
# New bone formation was determined (using a 10× objective) by measuring the new bone area formed in one field in 3 representative sections of each bone (4 bones per group). Each measurement was carried out ½ field distance from the end of the suture. Both total bone and old bone area were measured. Data were expressed as new bone area in mm^2.
# Osteoblast numbers were determined by point counting. The number of osteoblast cells lining the bone surface on both sides of the bone were counted in one field using a 20× objective. Data were expressed as osteoblast numbers/mm of bone surface.
# The results were calculated as new bone area in mm^2×10^−3, as above.
# [6] = Experiment 2, 0.097656 μM, 0.038085 μg/ml
# [7] = Experiment 2, 0.195312 μM, 0.076171 μg/ml
# [8] = Experiment 2, 0.390625 μM, 0.152343 μg/ml
# [9] = Experiment 2, 0.78125 μM, 0.304687 μg/ml
# [10] = Experiment 2, 1.5625 μM, 0.609375 μg/ml
# [11] = Experiment 2, 3.125 μM, 1.21875 μg/ml
# [12] = Experiment 2, 6.25 μM, 2.4375 μg/ml
# [13] = Experiment 2, 12.5 μM, 4.875 μg/ml
# [14] = Experiment 2, 25 μM, 9.75 μg/ml
# [15] = Experiment 2, 50 μM, 19.5 μg/ml
molecule,measurement,setting,value
"CCC(C)(C)C(=O)O[C@H]1C[C@@H](C)C=C2C=C[C@H](C)[C@H](CC[C@@H](O)C[C@@H](O)CC(=O)O)[C@H]21 [Hydrolyzed simvastatin, hydrolyzed simvastatin]",dose-dependent stimulatory effect in the ABA assay,[1],dose-dependent stimulatory effect
same,% 59-0008 Response,"[1]; Experiment 1, 0.195312 μg/ml",−0.680%
same,Fold increase over negative control,"[1]; Experiment 1, 0.195312 μg/ml",0.9 fold
same,% 59-0008 Response,"[1]; Experiment 1, 0.390625 μg/ml",1.520%
same,Fold increase over negative control,"[1]; Experiment 1, 0.390625 μg/ml",1.1 fold
same,% 59-0008 Response,"[1]; Experiment 1, 0.78125 μg/ml",10.430%
same,Fold increase over negative control,"[1]; Experiment 1, 0.78125 μg/ml",1.6 fold
same,% 59-0008 Response,"[1]; Experiment 1, 1.5625 μg/ml",36.190%
same,Fold increase over negative control,"[1]; Experiment 1, 1.5625 μg/ml",3.4 fold
same,% 59-0008 Response,"[1]; Experiment 1, 3.125 μg/ml",75.860%
same,Fold increase over negative control,"[1]; Experiment 1, 3.125 μg/ml",6.0 fold
same,% 59-0008 Response,"[1]; Experiment 1, 6.25 μg/ml",150.260%
same,Fold increase over negative control,"[1]; Experiment 1, 6.25 μg/ml",10.9 fold
same,% 59-0008 Response,"[1]; Experiment 1, 12.5 μg/ml",156.230%
same,Fold increase over negative control,"[1]; Experiment 1, 12.5 μg/ml",11.3 fold
same,% 59-0008 Response,"[1]; Experiment 1, 25 μg/ml",200.230%
same,Fold increase over negative control,"[1]; Experiment 1, 25 μg/ml",14.3 fold
same,% 59-0008 Response,"[1]; Experiment 1, 50 μg/ml",44.520%
same,Fold increase over negative control,"[1]; Experiment 1, 50 μg/ml",3.9 fold
same,% 59-0008 Response,"[1]; Experiment 1, 100 μg/ml",−15.230%
same,Fold increase over negative control,"[1]; Experiment 1, 100 μg/ml",−0.0 fold
same,% 59-0008 Response,"[1]; Experiment 1, 200 μg/ml",−15.140%
same,Fold increase over negative control,"[1]; Experiment 1, 200 μg/ml",−0.0 fold
same,dose-dependent stimulatory effect in control assays,[2],not in control assays
"CC[C@H](C)C(=O)O[C@H]1CCC=C2C=C[C@H](C)[C@H](CC[C@@H]3C[C@@H](O)CC(=O)O3)[C@H]21 [Mevastatin, mevastatin]",dose-dependent stimulatory effect in the ABA assay,[1],dose-dependent stimulatory effect
same,% 59-0008 Response,"[1]; Experiment 1, 0.195312 μg/ml",25.840%
same,Fold increase over negative control,"[1]; Experiment 1, 0.195312 μg/ml",2.144 fold
same,% 59-0008 Response,"[1]; Experiment 1, 0.390625 μg/ml",15.650%
same,Fold increase over negative control,"[1]; Experiment 1, 0.390625 μg/ml",1.693 fold
same,% 59-0008 Response,"[1]; Experiment 1, 0.78125 μg/ml",34.520%
same,Fold increase over negative control,"[1]; Experiment 1, 0.78125 μg/ml",2.528 fold
same,% 59-0008 Response,"[1]; Experiment 1, 1.5625 μg/ml",47.630%
same,Fold increase over negative control,"[1]; Experiment 1, 1.5625 μg/ml",3.103 fold
same,% 59-0008 Response,"[1]; Experiment 1, 3.125 μg/ml",99.670%
same,Fold increase over negative control,"[1]; Experiment 1, 3.125 μg/ml",5.413 fold
same,% 59-0008 Response,"[1]; Experiment 1, 6.25 μg/ml",140.260%
same,Fold increase over negative control,"[1]; Experiment 1, 6.25 μg/ml",7.210 fold
same,% 59-0008 Response,"[1]; Experiment 1, 12.5 μg/ml",164.730%
same,Fold increase over negative control,"[1]; Experiment 1, 12.5 μg/ml",8.293 fold
same,% 59-0008 Response,"[1]; Experiment 1, 25 μg/ml",152.690%
same,Fold increase over negative control,"[1]; Experiment 1, 25 μg/ml",7.760 fold
same,% 59-0008 Response,"[1]; Experiment 1, 50 μg/ml",153.110%
same,Fold increase over negative control,"[1]; Experiment 1, 50 μg/ml",7.779 fold
same,% 59-0008 Response,"[1]; Experiment 1, 100 μg/ml",12.460%
same,Fold increase over negative control,"[1]; Experiment 1, 100 μg/ml",1.552 fold
same,% 59-0008 Response,"[1]; Experiment 1, 200 μg/ml",−1.600%
same,Fold increase over negative control,"[1]; Experiment 1, 200 μg/ml",0.929 fold
same,% 59-0008 Response,[1]; [6],2.880%
same,Fold increase over negative control,[1]; [6],1.1 fold
same,% 59-0008 Response,[1]; [7],−0.090%
same,Fold increase over negative control,[1]; [7],0.9 fold
same,% 59-0008 Response,[1]; [8],0.960%
same,Fold increase over negative control,[1]; [8],1.0 fold
same,% 59-0008 Response,[1]; [9],2.370%
same,Fold increase over negative control,[1]; [9],1.1 fold
same,% 59-0008 Response,[1]; [10],9.780%
same,Fold increase over negative control,[1]; [10],1.6 fold
same,% 59-0008 Response,[1]; [11],10.970%
same,Fold increase over negative control,[1]; [11],1.7 fold
same,% 59-0008 Response,[1]; [12],36.210%
same,Fold increase over negative control,[1]; [12],3.4 fold
same,% 59-0008 Response,[1]; [13],66.010%
same,Fold increase over negative control,[1]; [13],5.3 fold
same,% 59-0008 Response,[1]; [14],71.630%
same,Fold increase over negative control,[1]; [14],5.7 fold
same,% 59-0008 Response,[1]; [15],97.420%
same,Fold increase over negative control,[1]; [15],7.4 fold
same,% 59-0008 Response,"[1]; Experiment 2, 100 μM, 39 μg/ml",88.860%
same,Fold increase over negative control,"[1]; Experiment 2, 100 μM, 39 μg/ml",6.9 fold
same,dose-dependent stimulatory effect in control assays,[2],not in control assays
same,inhibition of bone resorption in murine calvariae in vitro,[3],inhibits bone resorption
"bFGF: control factor, ""gold standard"" agent for bone growth",% increase in total bone area over vehicle control,[4],45%
same,Total Bone Area,[4],242 μm^2
same,New Bone Area,[5]; 3 days,5.7 mm^2 × 10^−3
same,"New Bone Area, % increase over vehicle control",[5]; 3 days,19%
same,Osteoblast Number,[5]; 3 days,179.25 Obs/field
same,"Osteoblast Number, % increase over vehicle control",[5]; 3 days,84%
same,New Bone Area,[5]; 7 days,18.1 mm^2 × 10^−3
same,"New Bone Area, % increase over vehicle control",[5]; 7 days,132%
same,Osteoblast Number,[5]; 7 days,168.7 Obs/field
same,"Osteoblast Number, % increase over vehicle control",[5]; 7 days,82%
